From patent US10980828B2, “Method of using cyclodextrin” (L&F Research LLC, priority 2012, dated 2021)

How the values were obtained:
BTBR ob/ob mice [1] = experiment: BTBR ob/ob mice treatment: diabetic kidney disease readouts; format: in vivo
Description: (§1) BTBR ob/ob mice treatment and analysis. BTBR ob/ob mice were purchased from Jackson Laboratories. Mice were injected subcutaneously with 4,000 mg/kg CD or saline as reported previously, three times per week for 5 months. Urine was collected, and body weight and glycemia (OneTouch) were determined weekly. Six mice per group were analyzed. All animal procedures were approved by the Institutional Animal Care and Use Committee (IACUC). After isotonic saline perfusion, the right kidney was removed for cholesterol content determination and mRNA extraction. One left kidney pole was embedded in OCT, a second pole fixed in 4% PFA and paraffin-embedded for histological analysis. Blood samples were analyzed for CBC, lipid panel, AST, ALT, Alkaline Phosphatase, GGT, and BUN in the Comparative Laboratory Core Facility, University of Miami. Serum creatinine was determined by tandem mass spectrometry at the UAB-UCSD O'Brien Core Center, University of Alabama at Birmingham, using the methods previously described. The urine albumin content was measured by ELISA (Bethyl Laboratories). Urinary creatinine was assessed by an assay based on the Jaffe method (Stanbio). Values are expressed as μg albumin/mg creatinine. Fasting plasma insulin was determined by ELISA (Mercodia, SW). Intraperitoneal glucose tolerance tests (IPGTT) were performed 4 months after treatment; after 5-hr fasting, blood glucose was recorded at baseline and up to 180 minutes after a glucose bolus (1.5 g/kg). For insulin sensitivity, glycemia was monitored at baseline and up to 150 minutes after intraperitoneal injection of 4 mU/g of short acting insulin. Human islets from four different isolations were pretreated with 0.5 mM CD for one hour and perfused as described before to determine insulin release in response to glucose and KCl.
Histology, assessment of mesangial expansion and glomerular surface area. Periodic acid-Shiff's (PAS) staining of 4 μm thick tissue sections was performed. Twenty glomeruli per section were analyzed for mesangial expansion by semiquantitative analysis (scale 0-4) performed by two blinded independent investigators. The glomerular surface was delineated in each encountered glomerulus and the mean surface area calculated as described.

human podocytes [2] = experiment: Human podocytes exposed to DKD+ patient sera: immunofluorescence staining (filipin, phospho-caveolin, F-actin, cell blebbing); format: cell-based
Description: We used a previously established cell-based assay in which differentiated human podocytes are exposed to 4% patient sera for 24 hours to identify new pathways and targets in DKD. […] Excessive cholesterol deposition has indeed been described in glomeruli of rodent models of T1D and T2D and may contribute to DKD development and progression.
(§2) Human podocyte culture. Human podocytes were cultured and differentiated as previously described and serum starved in 0.2% FBS prior to experiments. When patient sera were utilized, starved cells were exposed to 4% patient sera for 24 hours. For insulin treatment experiments, 100 nmol insulin was added to the culture medium for 15 minutes after exposure to patient sera.
Immunofluorescence staining. […] Fluorescence detection was performed using Alexa Fluor secondary antibodies (Invitrogen). For cholesterol determination, filipin (Sigma) staining was performed as described. F-actin was visualized by Rhodamine Phalloidin (Invitrogen). Two hundred consecutive cells per condition were studied. Slides were prepared with DAPI enriched mounting media (Vectashield) and analyzed by confocal microscopy.

human podocytes [3] = experiment: Apoptosis analysis (Caspase-3 colorimetric assay) in podocytes exposed to patient sera; format: cell-based; conditions: DKD+ treated podocytes, 5 mM CD pretreatment 1 hour
Description: as §2, with “sera. […] Apoptosis analysis. Apoptosis was assessed using the Caspase-3/CPP32 Colorimetric Assay kit (Biovision) according to the manufacturer's description. Caspase 3 activity was normalized to cell number and expressed as fold change to controls.” for “sera.”

human podocytes [4] = experiment: Determination of cholesterol content in podocytes exposed to patient sera; format: cell-based; conditions: DKD+ treated podocytes, 5 mM CD pretreatment 1 hour
Description: Human podocyte culture. Human podocytes were cultured and differentiated as previously described and serum starved in 0.2% FBS prior to experiments. When patient sera were utilized, starved cells were exposed to 4% patient sera for 24 hours. For insulin treatment experiments, 100 nmol insulin was added to the culture medium for 15 minutes after exposure to patient sera. […] Determination of cholesterol content. Esterified cholesterol was determined as difference between total and free cholesterol using an enzymatic assay and normalized to cell protein content. The cellular content of lipid droplets was determined using Oil red O (ORO). Cells were fixed and permeabilized as described above, washed in PBS and in 60% isopropanol, followed by incubation in ORO (0.5% ORO in isopropanol, 1:3 diluted) for 15 min at room temperature and counterstaining with hematoxylin for 1 min. The fraction of ORO positive cells over two hundred consecutive cells was calculated by bright field microscopy.

ABCA1 [5] = experiment: ABCA1 mRNA expression in kidney cortex of BTBR ob/ob mice; format: in vivo; conditions: BTBR ob/ob mice, 4,000 mg/kg s.c. three times per week, 5 months
Description: Quantitative Real Time PCR (QRT-PCR). Podocyte RNA was extracted using the RNAeasy Mini Kit (Qiagen). Reverse transcription was performed using the high-capacity cDNA reverse transcriptase kit (Applied Biosystems) according to the manufacturer's protocols. QRT-PCR was performed in the StepOnePlus real-time PCR system (Applied Biosystems) using the PerfeCTa® SYBR® Green FastMix (Quanta Biosciences). Relative gene expression was determined as 2^-ΔCt, with ΔCt being the difference between the cycle threshold (Ct) value of the target gene and Gapdh. For semi-quantitative expression analysis, PCR was performed and analyzed by gel electrophoresis. Amplification product intensities were determined using ImageJ software (NIH), values were normalized and expressed as fold changes in gene expression over GAPDH. The following primers were used: hABCA1-F, […]; hABCA1-R, […]; hLDL-R-F, […]; hLDL-R-R, […]; hHMG-CoA-R-F, […]; hHMG-CoA-R-R, […]; hGAPDH-F, […]; hGAPDH-R, Hs_ABCA1-SG QuantiTect-Primer-Assay (Qiagen); mAbca1-F, […]; mAbca1-R, […].
BTBR ob/ob mice treatment and analysis. […] Urine was collected, and body weight and glycemia (OneTouch) were determined weekly. Six mice per group were analyzed. […] Blood samples were analyzed for CBC, lipid panel, AST, ALT, Alkaline Phosphatase, GGT, and BUN in the Comparative Laboratory Core Facility, University of Miami. […]

[6] = intravenous infusions; cited from earlier work
ABCA1 [7] = experiment: ABCA1 immunofluorescence staining in pancreata of BTBR mice; format: in vivo
Source text: IPGTT performed one week prior to sacrifice were improved in CD treated homozygous mice when compared to homozygous controls. As improvement was observed despite a similar insulin sensitivity test, we analyzed the effect of low dose CD on the function of four different preparations of human islet cells. […] To determine whether the beneficial effect of CD on islet cell function was associated with the modulation of ABCA1 expression in pancreatic islets, we performed immunofluorescence staining using a rabbit polyclonal ABCA1 antibody (gift from Dr. A. Mendez) and determined ABCA1 expression as mean fluorescence intensity per pancreata analyzed. […] As hemolytic anemia and liver toxicity have been described while using other cyclodextrin derivatives in rodents and humans, and because we administered high dose CD for a period of 5 months, we studied hemoglobin, aspartate aminotransferase (AST), alanine transaminase (ALT) and gamma-glutamyltransferase (GGT) at sacrifice.

human islets = experiment: Human islet perifusion: glucose stimulated insulin release; format: cell-based; conditions: human islets from four preparations, pretreated with 0.5 mM CD for one hour, vs untreated
Description: as §1, with “Intraperitoneal glucose tolerance tests (IPGTT) were performed 4 months after treatment; after 5-hr fasting, blood glucose was recorded at baseline and up to 180 minutes after a glucose bolus (1.5 g/kg). For insulin sensitivity, glycemia was monitored at baseline and up to 150 minutes after intraperitoneal injection of 4 mU/g of short acting insulin. Human islets from four different isolations were pretreated with 0.5 mM CD for one hour and perfused as described before to determine insulin release in response to glucose and KCl.” left out

human podocytes [8] = experiment: Western blotting and luminex (insulin stimulated AKT phosphorylation, MyD88) in podocytes exposed to patient sera; format: cell-based; conditions: DKD+ treated podocytes, 5 mM CD pretreatment 1 hour
Description: Human podocyte culture. Human podocytes were cultured and differentiated as previously described and serum starved in 0.2% FBS prior to experiments. When patient sera were utilized, starved cells were exposed to 4% patient sera for 24 hours. For insulin treatment experiments, 100 nmol insulin was added to the culture medium for 15 minutes after exposure to patient sera. […] Western blotting and luminex. Cell lysate collection and Western blotting was performed as previously described. The following primary antibodies were used: rabbit-polyclonal-anti-MyD88 (Cell Signaling), rabbit-polyclonal-anti-phosphorylated ([…]) or anti-total-AKT (Cell Signaling), mouse-monoclonal-anti-rhoA (Santa Cruz), or mouse-monoclonal-anti-Gapdh (6C5, Calbiochem) antibody. Secondary Anti-mouse-IgG-HRP or and Anti-rabbit-IgG-HRP Conjugate (Promega) were used. Image acquisition was performed using the chemiluminescent imager SRX-101A (Konica Minolta medical imaging, USA) and band densitometry was analyzed using ImageJ software (NIH). Alternatively, phosphorylated/total AKT was quantified using luminex technology as previously reported.

BTBR ob/ob mice [9] = experiment: BTBR ob/ob mice treatment: body weight, glycemia, insulin, IPGTT, insulin sensitivity; format: in vivo
Description: as §1

BTBR mice = experiment: Safety of chronic subcutaneous CD in BTBR mice (blood analysis at sacrifice); format: in vivo; conditions: at sacrifice, 4,000 mg/kg s.c. three times per week for 5 months
Description: as §1
FIG. 3 is a table illustrating the safety of CD in 4-week old BTBR mice treated following subcutaneous administration of three weekly injections of hydroxypropyl-β-cyclodextrin (CD, 4,000 mg/kg body weight) for five months.

[10] = serum at sacrifice, 4,000 mg/kg s.c. three times per week, 5 months
[11] = podocytes pretreated 1 hour with 5 mM CD, exposed to 4% DKD+ sera 24 hours
[12] = BTBR ob/ob mice, 4,000 mg/kg s.c. three times per week, after four months of treatment
[13] = sera collected at sacrifice, BTBR ob/ob mice, 4,000 mg/kg s.c. three times per week

## CC(O)COC[C@H]1O[C@@H]2O[C@H]3[C@H](O)[C@@H](O)[C@@H](O[C@H]4[C@H](O)[C@@H](O)[C@@H](O[C@H]5[C@H](O)[C@@H](O)[C@@H](O[C@H]6[C@H](O)[C@@H](O)[C@@H](O[C@H]7[C@H](O)[C@@H](O)[C@@H](O[C@H]8[C@H](O)[C@@H](O)[C@@H](O[C@H]1[C@H](O)[C@H]2O)O[C@@H]8COCC(C)O)O[C@@H]7COCC(C)O)O[C@@H]6COCC(C)O)O[C@@H]5COCC(C)O)O[C@@H]4COCC(C)O)O[C@@H]3COCC(C)O (stereo partly drawn) [CD, hydroxypropyl-β-cyclodextrin]
BTBR ob/ob mice [1]; BTBR ob/ob mice, 4,000 mg/kg s.c. three times per week, 5 months
  total cholesterol in the kidney cortex: significant reduction of total cholesterol
BTBR ob/ob mice [1]; BTBR ob/ob mice, 4,000 mg/kg s.c. three times per week, at 3 months, vs untreated, p<0.001
  albumin/creatinine ratios in morning spot urine: significant down-regulation
BTBR ob/ob mice [1]; BTBR ob/ob mice, 4,000 mg/kg s.c. three times per week, at sacrifice (5 months)
  kidney weight: reduction of kidney weight
BTBR ob/ob mice [1]; BTBR ob/ob mice, 4,000 mg/kg s.c. three times per week, until sacrifice (5 months)
  albumin/creatinine ratios in morning spot urine: decrease persisted until sacrifice
BTBR ob/ob mice [1]; PAS stained kidney sections, five months of treatment
  glomerular surface area: without affecting the glomerular surface area
BTBR ob/ob mice [1]; PAS stained kidney sections, semiquantitative scale 0-4, five months of treatment
  mesangial expansion: reduction of mesangial expansion
BTBR ob/ob mice [1]; homozygous BTBR ob/ob mice, 4,000 mg/kg s.c. three times per week, up to 2 months after treatment initiation
  albumin excretion rates: no changes
BTBR ob/ob mice [1]; [10]
  Blood urea nitrogen (BUN): not significantly affected
  serum creatinine: not significantly affected
Human podocytes [2]; human podocytes exposed to sera of patients with diabetic kidney disease, CD
  cell blebbing: prevents
Human podocytes [2]; [11]
  localization of phosphorylated caveolin to focal adhesion sites: preserved the localization of phosphorylated caveolin to focal adhesion sites
  number of filipin-positive cells: reduced the number of filipin-positive cells
Human podocytes [2]; pretreated 1 hour with 5 mM CD or 1 μM simvastatin
  podocyte injury observed in vitro after exposure to patient sera: prevented podocyte injury
Human podocytes [3]
  DKD+ induced apoptosis (cleaved Caspase 3): prevented DKD+ induced apoptosis
Human podocytes [4]
  accumulation of esterified cholesterol: prevented the accumulation of total and esterified cholesterol
  accumulation of total cholesterol: prevented the accumulation of total and esterified cholesterol
ABCA1 [5]
  ABCA1 mRNA expression in the kidney cortex: did not affect
[6]
  crossing from the bloodstream into the brain: does not cross from the bloodstream into the brain
ABCA1 [7]; heterozygous BTBR ob/+ mice, p<0.01
  ABCA1 expression in pancreata (mean fluorescence intensity): significantly increased ABCA1 expression
ABCA1 [7]; homozygous BTBR ob/ob mice, p<0.001
  ABCA1 expression in pancreata (mean fluorescence intensity): significantly increased ABCA1 expression
Human islets
  glucose stimulated insulin release: significant improvement in glucose stimulated insulin release
Human podocytes [8]
  DKD+ induced MyD88 expression: prevented
Human podocytes [8]; 100 nmol insulin 15 minutes
  DKD+ induced insulin resistance (insulin stimulated AKT phosphorylation): prevented
BTBR ob/ob mice [9]; [12]
  body weight: reduction of body weight
  random glycemia: improvement of random glycemia
BTBR ob/ob mice [9]; BTBR ob/ob mice, insulin 4 mU/g intraperitoneal
  sensitivity to a single dose of short acting insulin: did not affect the sensitivity
BTBR ob/ob mice [9]; CD treated homozygous mice vs homozygous controls, one week prior to sacrifice, glucose bolus 1.5 g/kg
  IPGTT (glucose tolerance): improved
BTBR ob/ob mice [9]; [13]
  fasting plasma glucose: significant improvement
  fasting plasma insulin: significant improvement
BTBR mice
  alanine transaminase (ALT): No abnormalities
  aspartate aminotransferase (AST): No abnormalities
  gamma-glutamyltransferase (GGT): No abnormalities
  hemoglobin: No abnormalities
